Experimental data reported in patent US12662489B2 (Sitryx Therapeutics Limited, priority 2023, dated 2026).

What was measured:
[1] = target: T1, MTHFD1 recombinant human enzyme (Homo sapiens, UniProt P11586); assay: MTHFD1 inhibition assay (NAD(P)H-Glo luminescence); conditions: MTHFD1 IC50, recombinant human enzyme 200 nM, NADP, band
T1 sequence (P11586 2-291 limits assumed): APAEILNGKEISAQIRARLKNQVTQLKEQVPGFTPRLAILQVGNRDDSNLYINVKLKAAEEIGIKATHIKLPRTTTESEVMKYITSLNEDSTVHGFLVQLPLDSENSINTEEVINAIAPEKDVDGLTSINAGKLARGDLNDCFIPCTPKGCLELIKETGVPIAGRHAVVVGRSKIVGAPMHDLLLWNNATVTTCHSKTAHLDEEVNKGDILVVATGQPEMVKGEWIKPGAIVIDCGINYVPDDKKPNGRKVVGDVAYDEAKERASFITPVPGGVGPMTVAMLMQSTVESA

[2] = target: T2, MTHFD2 recombinant human enzyme (Homo sapiens, UniProt P13995); assay: MTHFD2 inhibition assay (NAD(P)H-Glo luminescence); conditions: for MTHFD1/MTHFD2 IC50 ratio: selectivity of MTHFD2 inhibition over MTHFD1, band
T2 sequence (P13995 36-350): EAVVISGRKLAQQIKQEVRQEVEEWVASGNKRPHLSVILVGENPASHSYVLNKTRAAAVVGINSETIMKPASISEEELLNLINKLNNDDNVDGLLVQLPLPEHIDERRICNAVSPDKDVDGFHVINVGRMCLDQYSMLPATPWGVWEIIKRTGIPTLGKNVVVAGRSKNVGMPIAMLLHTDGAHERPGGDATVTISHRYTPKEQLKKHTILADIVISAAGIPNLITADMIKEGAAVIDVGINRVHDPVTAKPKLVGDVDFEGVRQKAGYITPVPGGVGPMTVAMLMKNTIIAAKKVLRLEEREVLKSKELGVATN

SMILES | IC50 [1] | IC50 [2] | MTHFD1/MTHFD2 IC50 ratio [2]
COC[C@H]1CN(c2cc(Cl)c3c4c(c(=O)oc3c2C)CN(C(=O)c2cc(N(C)C)c(C(=O)NS(=O)(=O)N3CCC[C@@H]3COC)cc2F)CC4)CCN1C [Example 290, 4-(10-chloro-8-((R)-3-(methoxymethyl)-4-methylpiperazin-1-yl)-7-methyl-5-oxo-1,3,4,5-tetrahydro-2H-chromeno[3,4-c]pyridine-3-carbonyl)-2-(dimethylamino)-5-fluoro-N-(((R)-2-(methoxymethyl)pyrrolidin-1-yl)sulfonyl)benzamide] | 100 to 1000 nM | 10 to 100 nM | J (>30)
COC[C@H]1CN(c2cc(C)c3c4c(c(=O)oc3c2C)CN(C(=O)c2ccc(C(=O)NS(=O)(=O)N3CCCC3)c(N3CCC[C@@H]3C)c2)CC4)CCN1C [Example 122, 4-(8-((R)-3-(methoxymethyl)-4-methylpiperazin-1-yl)-7,10-dimethyl-5-oxo-1,3,4,5-tetrahydro-2H-chromeno[3,4-c]pyridine-3-carbonyl)-2-((S)-2-methylpyrrolidin-1-yl)-N-(pyrrolidin-1-ylsulfonyl)benzamide] | 10 to 100 nM | 10 to 100 nM | F (<3)
COC[C@H]1CN(c2cc(C)c3c4c(c(=O)oc3c2C)CN(C(=O)c2ccc(C(=O)NS(=O)(=O)N3CCCC3)c(N3C5CCC3CC5)c2)CC4)CCN1C [Example 121, (R)-2-(7-azabicyclo[2.2.1]heptan-7-yl)-4-(8-(3-(methoxymethyl)-4-methylpiperazin-1-yl)-7,10-dimethyl-5-oxo-1,3,4,5-tetrahydro-2H-chromeno[3,4-c]pyridine-3-carbonyl)-N-(pyrrolidin-1-ylsulfonyl)benzamide] | 1 to 10 nM | 10 to 100 nM | F (<3)
COC[C@H]1CN(c2cc(C)c3c4c(c(=O)oc3c2C)CN(C(=O)c2ccc(C(=O)NS(=O)(=O)N(C)C)c(N3C5CCC3CC5)c2F)CC4)CCN1C [Example 74, (R)-2-(7-azabicyclo[2.2.1]heptan-7-yl)-N-(N,N-dimethylsulfamoyl)-3-fluoro-4-(8-(3-(methoxymethyl)-4-methylpiperazin-1-yl)-7,10-dimethyl-5-oxo-1,3,4,5-tetrahydro-2H-chromeno[3,4-c]pyridine-3-carbonyl)benzamide] | 1 to 10 nM | 1 to 10 nM | F (<3)
COC[C@H]1CN(c2ccc3c4c(c(=O)oc3c2Cl)CN(C(=O)c2ccc(C(=O)NS(=O)(=O)N(C)C)c(OC3CCC3)c2F)CC4)CCN1C [Example 52, (R)-4-(7-chloro-8-(3-(methoxymethyl)-4-methylpiperazin-1-yl)-5-oxo-1,3,4,5-tetrahydro-2H-chromeno[3,4-c]pyridine-3-carbonyl)-2-cyclobutoxy-N-(N,N-dimethylsulfamoyl)-3-fluorobenzamide] | 1 to 10 nM | 1 to 10 nM | –
COC[C@H]1CN(c2ccc3c4c(c(=O)oc3c2C)CN(C(=O)c2cc(N(C)C)c(C(=O)NS(=O)(=O)N3CCC5(CC3)CC5)cc2Cl)CC4)CCN1C [Example 190, (R)-N-((6-azaspiro[2.5]octan-6-yl)sulfonyl)-5-chloro-2-(dimethylamino)-4-(8-(3-(methoxymethyl)-4-methylpiperazin-1-yl)-7-methyl-5-oxo-1,3,4,5-tetrahydro-2H-chromeno[3,4-c]pyridine-3-carbonyl)benzamide] | > 5000 nM | 100 to 1000 nM | H (>9.0 to 30)
COC[C@H]1CN(c2ccc3c4c(c(=O)oc3c2Cl)CN(C(=O)c2ccc(C(=O)NS(=O)(=O)N(C)C(C)C)c(OC3CCC3)c2F)CC4)CCN1C [Example 30, (R)-4-(7-chloro-8-(3-(methoxymethyl)-4-methylpiperazin-1-yl)-5-oxo-1,3,4,5-tetrahydro-2H-chromeno[3,4-c]pyridine-3-carbonyl)-2-cyclobutoxy-3-fluoro-N-(N-isopropyl-N-methylsulfamoyl)benzamide] | 10 to 100 nM | 10 to 100 nM | F (<3)
